Test [1] has as its system Mucor mucedo. Kind of test: Antimicrobial activity against Mucor mucedo IFO 7684 at 100 uM after 24 hrs by broth microdilution method. It counts as functional, organism-based. On the technique in general: Dilution methods test growth across graded concentrations, often in twofold steps.
In test [2] the test system is Mucor mucedo. Description: Induction of morphological changes in Mucor mucedo IFO 7684 assessed as thickening of hyphae at 100 uM after 24 hrs by microscopic analysis. It is filed as functional, organism-based.
The subject of test [3] is Mucor mucedo. Description: Inhibition of RNA synthesis in Mucor mucedo IFO 7684 assessed as [8-14C]-adenine uptake into acid-insoluble fractions at 0.77 mM after 25 mins by liquid scintillation counting. Conditions: IFO 7684, 25 min. It is filed as functional.
The subject of test [4] is Mucor mucedo. Kind of test: Inhibition of DNA synthesis in Mucor mucedo IFO 7684 assessed as [8-14C]-adenine uptake into acid-insoluble fractions at 0.77 mM after 25 mins by liquid scintillation counting. Conditions: IFO 7684, 25 min. It is filed as functional.
In test [5] the test system is Mucor mucedo. Description: Inhibition of chitin synthase in Mucor mucedo IFO 7684 assessed as incorporation of GlcNAc from [14C]-UDP-GlcNAc into acid-insoluble fractions at 4 ug/ml after 55 mins by liquid scintillation counting.
For test [6], the system named is Mucor mucedo. Description: Antifungal activity against Mucor mucedo IFO 7684 under hypoosmotic shock assessed as increase of fragility of organism at 0.081 uM after 24 hrs measured after distilled water treatment for 10 mins by microscopic analysis. It is filed as functional, organism-based.
Test [7] has as its system Mucor mucedo. Description: Effect on cell wall re-generation in Mucor mucedo IFO 7684 spheroplasts under hyperosmotic condition at 0.081 uM up to 24 hrs by microscopic analysis. It counts as functional.
For test [8], the system named is Fusarium oxysporum. Kind of test: Antifungal activity against Fusarium oxysporum NBRC 5942 under hyperosmotic shock at 0.081 uM after 2 days by paper disc method. It counts as functional. Conditions: NBRC 5942, 48 h, read-out: DIZ.
For test [9], the system named is Fusarium oxysporum. Kind of test: Antifungal activity against Fusarium oxysporum NBRC 5942 under hypoosmotic shock assessed as increase of fragility of organism at 0.081 uM after 24 hrs measured after distilled water treatment for 10 mins by microscopic analysis. It is filed as functional, organism-based.
The subject of test [10] is Mucor mucedo. Kind of test: Antifungal activity against Mucor mucedo IFO 7684 under hyperosmotic shock at 0.081 uM after 2 days by paper disc method. It is filed as functional. Conditions: IFO 7684, 48 h, read-out: DIZ.

Molecules are shown by their SMILES. The source made the active and inactive calls. The rule behind the calls is not given here.

Regarding `CCCC(=O)Nc1ncnc2c1ncn2[C@@H]1O[C@@H]2COP(=O)(O)O[C@H]2[C@H]1OC(=O)CCC`, the result in [1] and in test [2] was inactive.

On to `CNCCNS(=O)(=O)c1cccc2cnccc12`, for which the result in [1] and in test [2] was inactive.

The inhibition is the share of the control response that was lost under treatment. `O=c1[nH]cc(F)c(=O)[nH]1` [FLUOROURACIL]: the inhibition at 770 µM in [3] turned out to be 75%; in [4], 61%.

Turning to `C[C@@H]([C@H](N)C(=O)N[C@H](C(=O)O)[C@H]1O[C@@H](n2ccc(=O)[nH]c2=O)[C@H](O)[C@@H]1O)[C@H](O)c1ccc(O)cn1` [NIKKOMYCIN], the inhibition in [5] was found to be 69%. The outcome in [6] and in test [9] was Active. Besides, the result in test [7] was inactive. Moreover, the zone of inhibition at 0.081 µM in [8] is 0 mm; in test [10], 23 mm.

The values are drawn from ChEMBL document CHEMBL1817597, “Antifungal thiopeptide cyclothiazomycin B1 exhibits growth inhibition accompanying morphological changes via binding to fungal cell wall chitin” (Bioorg Med Chem, 2011).
